# Paper PMC6209770 (Frontiers in Pharmacology, 2018)
# Values joined by “and” are separate entries in the source; they are usually repeats but may differ in a detail not shown here. Equal values may be shown once. Read-outs that look alike come from different tables or passages of the source.
# Key:
# mice [1] = assay: Spontaneous locomotor activity; format: in vivo
# Procedure: Photoresistor actometers (Ugo Basile, Italy) connected to a counter for the recording of light-beam interruptions were used to investigate the effect of the compound on locomotor activity in mice. Locomotor activity was counted as the number of the light-beam crossing. It was recorded individually for each animal. After administration of the tested compound, each mouse was placed separately in a cage for 30 min habituation period. After that time, the parameter was measured for 1 min and 5 min (i.e., time equal to the observation period in four plate test and elevated plus maze test, respectively). The cages were sanitized with 70% ethanol after each mouse.
# mice [2] = assay: Four plate test after pretreatment with pCPA, WAY-100635 or AMPT; format: in vivo
# Procedure: (§1) Mice were placed individually in the four plate apparatus connected to the power source. After a 15 s of habituation period, each mouse crossing from one plate to another (two limbs on one plate, two on another) was punished by an electric shock (0.8 mA, 0.5 s). If the mouse continued running, it received no new shock for the following 3 s. The number of punished crossings was calculated during the 60 s of the test.
# We performed the four plate test 30 min after the administration.
# Control group received vehicle (1% Tween). […] We performed the four plate test 30 min after the compound administration.
# serotonin levels = tested on: serotonin levels; parameters: method as in Imaizumi et al. (1996); settings: 3-day treatment with pCPA 200 mg/kg; ref Imaizumi et al. (1996); cited from earlier work
# mice [3] = assay: Elevated plus maze test; format: in vivo
# mice [4] = assay: Four plate test; format: in vivo
# Procedure: as §1
# D2 receptor = D2 receptor (Homo sapiens, UniProt P14416); assay: cell-based
# Procedure: (§2) Serial dilutions were prepared in 96-well microplate in appropriate dilution buffer (HBSS or medium) with 0.1% BSA added, and 8–10 concentrations were tested in duplicates. At least two independent experiments were performed for each type of method. Assays were done according to manufacturer’s protocols.
# GABAA receptor = settings: read-out: GABAA receptors Ki ± SEM; rat cerebral cortex, [3H]-muscimol 1 nM
# Procedure: The final incubation mixture (total volume 250 μl) consisted of a 50 μl solution of the test compound, 50 μl of radioligand and 150 μl of diluted membranes or the tissue suspension. The incubation was terminated by rapid filtration over glass fiber filters GF/B (PerkinElmer, United States) using 96-well FilterMate Harvester (PerkinElmer, United States). Five rapid washes were performed with ice-cold 50 mM Tris–HCl buffer (pH 7.4 or 7.6). […] Radioligand binding data were analyzed using iterative curve fitting routines GraphPad Prism 5.0 (GraphPad Software). […] At least two independent experiments were performed for each assay.
# 5-HT1A receptor [5] = target: T1, 5-HT1A receptor (Homo sapiens, UniProt P08908); parameters: expressed in transfected cells; host or cells: CHO (CHO-5HT1A); method as in Kubacka et al., 2016; settings: 5-HT1A Ca2+ assay, ref Kubacka et al., 2016, cited from earlier work
# T1 sequence (P08908 1-422): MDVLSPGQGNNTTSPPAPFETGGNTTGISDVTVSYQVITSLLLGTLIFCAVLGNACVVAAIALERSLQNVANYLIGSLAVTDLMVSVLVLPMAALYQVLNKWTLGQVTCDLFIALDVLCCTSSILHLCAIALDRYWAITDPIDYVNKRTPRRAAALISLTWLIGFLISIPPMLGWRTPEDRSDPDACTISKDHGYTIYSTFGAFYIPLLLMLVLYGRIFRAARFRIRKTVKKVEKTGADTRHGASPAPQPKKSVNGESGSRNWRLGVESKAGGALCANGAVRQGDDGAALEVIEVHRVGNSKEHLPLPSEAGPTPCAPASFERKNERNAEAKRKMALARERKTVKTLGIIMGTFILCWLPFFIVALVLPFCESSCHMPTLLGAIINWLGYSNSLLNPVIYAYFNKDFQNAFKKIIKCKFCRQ
# 5-HT1A receptor [6] = target: T1, 5-HT1A receptor; assay: SureFire ERK-phosphorylation AlphaLISA assay, CHO-5HT1A cells; settings: 5-HT1A pERK1/2 assay
# Procedure: as §2
# 5-HT1A receptor [7] = target: T1, 5-HT1A receptor; assay: Tango LiveBLAzer β-arrestin recruitment assay, HTR1A-bla U2OS cells; settings: 5-HT1A ß-arrestin assay
# [8] = target: T2, human serotonin 5-HT1A receptor (Homo sapiens, UniProt P08908); assay: cAMP assay (TR-FRET), CHO-K1 cells; settings: 5-HT1A cAMP assay
# T2 sequence (P08908 1-422): T1 sequence (P08908 1-422)
# 5-HT2A receptor = 5-HT2A receptor (Homo sapiens, UniProt P28223); format: cell-based
# Procedure: as §2
# [9] = antagonist mode, serotonin EC80 (45 nM)
# [10] = antagonist mode, serotonin EC80 (300 nM)
# [11] = antagonist mode, serotonin EC80 (120 nM)
smiles,measurement,setting,value
"N[C@@H](Cc1ccc(Cl)cc1)C(=O)O (racemic) [pCPA, p-Chlorophenylalanine]",Number of crossings ± SEM,"mice [1]; pCPA experiment, pCPA 200 mg/kg",29.4
same,Effect on number of punished crossings,"mice [2]; pCPA alone, 200 mg/kg i.p., three days",did not influence
same,Reduction of serotonin levels in the cortex,serotonin levels,30%
same,Reduction of serotonin levels in the diencephalon,serotonin levels,35%
same,Reduction of serotonin levels in the midbrain,serotonin levels,24%
same,Reduction of serotonin levels in the pons with medulla,serotonin levels,34%
CCCN(CCC)C1CCc2cccc(O)c2C1 (stereo not drawn) [8-OH-DPAT],Increase in time spent in the open arms vs non-treated control,"mice [3]; 2 mg/kg, 15 min before test (but not 0.25, 0.5 or 1 mg/kg)",154.3%
same,Effect on number of open arm entries,"mice [3]; 8-OH-DPAT doses tested up to 2 mg/kg, 15 min before test",no effect
same,Increase in the number of punished crossings,"mice [4]; 0.5 mg/kg, 15 min before test (but not 0.25, 1 or 2 mg/kg)",38.2%
"CC(N)(Cc1ccc(O)cc1)C(=O)O (stereo not drawn) [AMPT, α-methyl-p-tyrosine]",Number of crossings ± SEM,"mice [1]; AMPT experiment, AMPT 100 mg/kg",24.5
same,Effect on number of punished crossings,"mice [2]; AMPT alone, 100 mg/kg i.p.",had no effect
CN1CCc2cccc3c2[C@H]1Cc1ccc(O)c(O)c1-3 [Apomorphine],Emax,D2 receptor; read-out: Agonist mode Emax %,100%
same,Emax,D2 receptor; read-out: Antagonist mode Emax %,1%
"CN1C(=O)CN=C(c2ccccc2)c2cc(Cl)ccc21 [Diazepam, diazepam]",Ki,GABAA receptor,5.6 ± 0.7 nM
same,Increase in number of open arm entries vs non-treated control,"mice [3]; mouse, in vivo",78.5% and 73.9% and 124.6%
same,Increase in time spent in the open arms vs non-treated control,"mice [3]; mouse, in vivo",84.6% and 59.9%
"COc1ccccc1N1CCN(CCCOc2cc(C)ccc2C)CC1.Cl [HBK-17, 1-[(2,5-dimethylphenoxy)propyl]-4-(2-methoxyphenyl)piperazine hydrochloride]",Number of crossings ± SEM,"mice [1]; mouse, in vivo, ip, 5 mg/kg",44.8
CC1CCN(CC[C@H]2CCCN2S(=O)(=O)c2cccc(O)c2)CC1 [SB269970],Increase in the number of punished crossings vs non-treated control,mice [4]; […] i.p. 30 min before test (but not 1.25 or 5 mg/kg),137.5%
COc1ccccc1N1CCN(CC(C(=O)NC(C)(C)C)c2ccccc2)CC1 (stereo not drawn) [WAY-100135],Agonist mode Emax %,5-HT1A receptor [5]; agonist mode,2%
same,Antagonist mode Emax %,5-HT1A receptor [5]; antagonist mode,0%
same,Antagonist mode pIC50,5-HT1A receptor [5]; antagonist mode,8.3
same,Kb,5-HT1A receptor [5]; antagonist mode,0.8 nM
same,Agonist mode Emax %,5-HT1A receptor [6]; agonist mode,2%
same,Antagonist mode Emax %,5-HT1A receptor [6]; [9],0%
same,Antagonist mode pIC50,5-HT1A receptor [6]; [9],7.90
same,Kb,"5-HT1A receptor [6]; read-out: Antagonist mode Kb, antagonist mode, serotonin EC80 (45 nM)",2.7 nM
same,Agonist mode Emax %,"5-HT1A receptor [7]; agonist mode, relative to serotonin",1%
same,Antagonist mode Emax %,5-HT1A receptor [7]; [10],5%
same,Antagonist mode pIC50,5-HT1A receptor [7]; [10],8.1
same,Kb,"5-HT1A receptor [7]; read-out: Antagonist mode Kb, antagonist mode, serotonin EC80 (300 nM)",5.9 nM
same,Agonist mode Emax %,"[8]; agonist mode, 10 μM forskolin",2%
same,Antagonist mode Emax %,[8]; [11],8%
same,Antagonist mode pIC50,[8]; [11],7.9
same,Kb,"[8]; read-out: Antagonist mode Kb, antagonist mode, serotonin EC80 (120 nM)",6.4 nM
COc1ccccc1N1CCN(CCN(C(=O)C2CCCCC2)c2ccccn2)CC1 [WAY-100635],Number of crossings ± SEM,"mice [1]; WAY-100635 experiment, WAY-100635 0.3 mg/kg",27.9
same,Effect on number of punished crossings,"mice [2]; WAY-100635 alone, 0.3 mg/kg s.c.",did not influence
"CC(N)Cc1c[nH]c2ccc(O)cc12 (stereo not drawn) [α-Methylserotonin, α-methylserotonin]",Agonist mode Emax %,5-HT2A receptor; agonist mode,100%
same,Agonist mode pEC50,5-HT2A receptor; agonist mode,8.70
same,Antagonist mode Emax %,5-HT2A receptor; antagonist mode,1%
